Measured values taken from patent publication US20250205265A1, “ASPERULOSIDE AS AN AGENT FOR IMPROVING VASCULAR AND METABOLIC FUNCTION IN OBESITY: ROLE OF NRF2 ACTIVATION” (The Chinese University of Hong Kong, priority 2023, published 2025).

Experiments:
Nrf2 = Nrf2 nuclear translocation in endothelial cells; type: cell-based; conditions: ML385 co-treatment; immunofluorescence and western blotting
Procedure: After induction of obesity in C57BL/6 male mice fed with high fat diet for twelve weeks, they were treated daily with ASP (50 mg/kg) via oral gavage for seven weeks in vivo study. C57BL/6 mice aortae were used for ex vivo study and endothelial cells were used for in vitro study. Vascular function was determined by wire myograph. DHE and MitoSOX staining were used to detect ROS levels. QPCR, aortic en-face immunofluorescence staining, and Western blotting were used to analyze mRNA and protein expressions. Small interfering (si)RNA of Nrf2 and HO-1, inhibitors of Nrf2 (ML385, Cat. No.: HY-100523) and HO-1 (OB-24, HY-118487) were used to elucidate the mechanistic pathway of ASP's action.
(§1) After induction of obesity in C57BL/6 male mice fed with the high-fat diet for twelve weeks, they were treated daily with ASP (50 mg/kg) via oral gavage for seven weeks in vivo study. C57BL/6 mice aortae were used for ex vivo studies. Endothelial cells, HepG2 and primary adipocytes were used for in vitro studies. Vascular function was determined by wire myograph. H&E staining was employed for histological examination. Oil Red O staining was used to determine lipid droplets in tissues and cells. DHE and MitoSOX staining were used to detect ROS levels. QPCR, aortic en-face immunofluorescence staining, and Western blotting were used to analyze mRNA and protein expressions. ARE binding activity was determined by Dual luciferase reporter assay. Small interfering (si)RNA of Nrf2 and HO-1, inhibitors of Nrf2 (ML385, Cat. No.: HY-100523) and HO-1 (OB-24, HY-118487) were used to elucidate the mechanistic pathway of ASP's action.

[1] = tested on: Nrf2/antioxidant responsive element (ARE); assay: ARE binding activity, luciferase reporter assay in endothelial cells; type: cell-based; conditions: luciferase reporter assay
Procedure: as §1

Cc1ccccc1C(=O)N1CCc2cc(-c3nc(NC(=O)Cc4ccc5c(c4)OCO5)sc3C)ccc21 [ML385, reference compound]
effect on Nrf2 nuclear translocation stimulated by ASP (Nrf2): blocks Nrf2 nuclear translocation stimulated by ASP | effect on activation of ARE binding by ASP [1]: attenuates the activation of ARE binding by ASP
